From patent US9029325B2, “Amylin analogues and pharmaceutical compositions thereof” (Novo Nordisk A/S, priority 2011, dated 2015)
Starred links: 1 amine or outer side, 2 acyl side, 3 side chain; linkers in the order of their positions; H or OH if unused. Positions of bridges follow the written chain, without caps; N, C: chain ends. Residues, ends and D or L forms follow the SMILES beside them. *: point of attachment. C20 diacid = O=C(O)CCCCCCCCCCCCCCCCCCC(=O)*; γGlu = O=C(O)[C@H](CCC(=O)[*:2])N[*:1]

Assay: Assay (III) ThT fibrillation assay for physical stability
Type: physicochemical
Conditions: for Th T pH 4.0 lag time (h): 37° C., orbital shaking 960 rpm; for ThT pH 4.0 lag time: Table 9
How it was run: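 Freshly prepared samples, pH adjusted with NaOH and HClO4 or HCl, received ThT at 1 μM final and were incubated at 37° C with orbital shaking at 960 rpm. Fluorescence (ex 444 nm, em 485 nm) was read every 20 minutes; […], with polypeptide concentration by reverse HPLC before and after.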

SMILES | Th T pH 4.0 lag time (h) | ThT pH 4.0 lag time
CC[C@H](C)[C@H](NC(=O)[C@@H]1CCCN1C(=O)CNC(=O)[C@H](Cc1ccccc1)NC(=O)[C@H](CC(N)=O)NC(=O)[C@H](CC(N)=O)NC(=O)[C@H](CO)NC(=O)[C@H](CO)NC(=O)[C@H](Cc1c[nH]cn1)NC(=O)[C@H](Cc1c[nH]cn1)NC(=O)[C@H](CC(C)C)NC(=O)[C@H](Cc1ccccc1)NC(=O)[C@H](CCC(=O)O)NC(=O)[C@H](C)NC(=O)[C@H](CC(C)C)NC(=O)[C@H](CCCCN)NC(=O)[C@H](CCC(N)=O)NC(=O)[C@@H](NC(=O)[C@H](C)NC(=O)[C@@H]1CSSC[C@H](NC(=O)[C@H](CCCCN)NC(=O)CC[C@H](NC(=O)CCCCCCCCCCCCCCCCCCC(=O)O)C(=O)O)C(=O)N[C@@H](CC(N)=O)C(=O)N[C@@H]([C@@H](C)O)C(=O)N[C@@H](C)C(=O)N[C@@H]([C@@H](C)O)C(=O)N1)[C@@H](C)O)C(=O)N[C@@H](CC(C)C)C(=O)N1CCC[C@H]1C(=O)N1CCC[C@H]1C(=O)N[C@H](C(=O)N[C@@H](CC(N)=O)C(=O)N[C@H](C(=O)NCC(=O)N[C@@H](CO)C(=O)N[C@@H](CC(N)=O)C(=O)N[C@H](C(=O)N1CCC[C@H]1C(N)=O)[C@@H](C)O)C(C)C)[C@@H](C)O [Example 145, N-alpha-[(S)-4-Carboxy-4-(19-carboxynonadecanoylamino)butyryl]-[Lys11, Glu14, His17, Pro37]-pramlintide] ({C20 diacid-γGlu}-KCNTATCATQKLAEFLHHSSNNFGPILPPTNVGSNTP-NH2; disulfide 2-7) | >45 h | >45 hr
CC[C@H](C)[C@H](NC(=O)[C@@H]1CCCN1C(=O)CNC(=O)[C@H](Cc1ccccc1)NC(=O)[C@H](CC(N)=O)NC(=O)[C@H](CCC(N)=O)NC(=O)[C@H](CO)NC(=O)[C@H](CO)NC(=O)[C@H](Cc1c[nH]cn1)NC(=O)[C@H](Cc1c[nH]cn1)NC(=O)[C@H](CC(C)C)NC(=O)[C@H](Cc1ccccc1)NC(=O)[C@H](CCC(=O)O)NC(=O)[C@H](C)NC(=O)[C@H](CC(C)C)NC(=O)[C@H](CCCNC(=N)N)NC(=O)[C@H](CCC(N)=O)NC(=O)[C@@H](NC(=O)[C@H](C)NC(=O)[C@@H]1CSSC[C@H](NC(=O)[C@H](CCCCN)NC(=O)CC[C@H](NC(=O)CCCCCCCCCCCCCCCCCCC(=O)O)C(=O)O)C(=O)N[C@@H](CC(N)=O)C(=O)N[C@@H]([C@@H](C)O)C(=O)N[C@@H](C)C(=O)N[C@@H]([C@@H](C)O)C(=O)N1)[C@@H](C)O)C(=O)N[C@@H](CC(C)C)C(=O)N1CCC[C@H]1C(=O)N1CCC[C@H]1C(=O)N[C@H](C(=O)N[C@@H](CC(N)=O)C(=O)N[C@H](C(=O)NCC(=O)N[C@@H](CO)C(=O)N[C@@H](CC(N)=O)C(=O)N[C@H](C(=O)N1CCC[C@H]1C(N)=O)[C@@H](C)O)C(C)C)[C@@H](C)O [Example 130, N-alpha-[(S)-4-Carboxy-4-(19-carboxynonadecanoylamino)butyryl]-[Glu14, His17, Gln21, Pro37]-pramlintide] ({C20 diacid-γGlu}-KCNTATCATQRLAEFLHHSSQNFGPILPPTNVGSNTP-NH2; disulfide 2-7 (inferred); C-terminus assumed) | >45 h | >45 hr
